According to patent publication US20220133957A1, “Sclerostin Inhibitors That Promote Bone Morphogenetic Protein Expression” (Emory University, priority 2019, published 2022):

T1: sclerostin and LRP5 interaction (Homo sapiens, UniProt Q9BQB4)
T1 sequence (Q9BQB4 24-213): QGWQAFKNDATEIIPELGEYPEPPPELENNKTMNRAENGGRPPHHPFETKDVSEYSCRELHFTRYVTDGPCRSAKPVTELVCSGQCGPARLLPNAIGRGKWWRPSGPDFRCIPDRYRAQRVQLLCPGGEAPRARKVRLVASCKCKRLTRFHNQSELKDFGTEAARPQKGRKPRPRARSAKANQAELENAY

B1: BMP2: bone morphogenetic protein 2, growth factor used to treat cells (protein, listed as Homo sapiens)
chain: MVAGTRCLLALLLPQVLLGGAAGLVPELGRRKFAAASSGRPSSQPSDEVLSEFELRLLSMFGLKQRPTPSRDAVVPPYMLDLYRRHSGQPGSPAPDHRLERAASRANTVRSFHHEESLEELPETSGKTTRRFFFNLSSIPTEEFITSAELQVFREQMQDALGNNSSFHHRINIYEIIKPATANSKFPVTRLLDTRLVNQNASRWESFDVTPAVMRWTAQGHANHGFVVEVAHLEEKQGVSKRHVRISRSLHQDEHSWSQIRPLLVTFGHDGKGHPLHKREKRQAKHKQRKRLKSSCKRHPLYVDFSDVGWNDWIVAPPGYHAFYCHGECPFPLADHLNSTNHAIVQTLVNSVNSKIPKACCVPTELSAISMLYLDENEKVVLKNYQDMVVEGCGCR

Legend:
[1] = system: AXIN2, Wnt1 and SOST mRNA; assay: BMP-2-induced marker gene expression in Wnt pathway (mRNA levels) in MC3T3 cells; format: cell-based; details: 10 uM compound, BMP-2 35 ng/ml, MC3T3 cells treated for 48 hrs
Sprague-Dawley rats = assay: in vivo subcutaneous ectopic mineralization model (collagen sponge implant); parameters: species or system rat; details: 4 weeks; for dose-response of ectopic mineralization: 10, 25, 50, 75 and 100 mM on collagen sponge; for de novo ectopic mineralization: standalone agent on plain collagen sponge, 0-100 mM, subcutaneous on chest
Experimental: Compound was delivered in 100 uL at indicated concentration for each collagen disc in DMSO solvent before subcutaneous implantation.
Sclerostin inhibitors were tested in a challenging in vivo subcutaneous ectopic mineralization model. Other than the osteoinductive BMPs, few if any proteins or small molecules are capable of inducing de novo ectopic mineralization in this rat model. Sclerostin inhibitors were loaded individually as standalone agents onto a plain collagen sponge (DSM) at 0, 10, 25, 50, 75, and 100 mM and then surgically implanted subcutaneously on the chest of 6-week-old male Sprague-Dawley rats for 4 weeks. A positive control of 10 μg of recombinant BMP-2 was also tested.

[2] = system: rabbit posterolateral spine fusion; assay: rabbit model of posterolateral lumbar arthrodesis (spinal fusion); format: in vivo; details: for spinal fusion rates compared to controls: 300 mM; for spinal fusion rates compared to controls / spines successfully fused: 6 weeks; for spines successfully fused: 500 mM as standalone drug on plain collagen sponge without ICBG; for posterolateral spine fusion rate: 500 mM in combination with autologous iliac crest bone graft (ICBG), 6 weeks after arthrodesis
Experimental: Coronal μCT reconstructions of rabbit spines 6 weeks following posterolateral spine arthrodesis are shown.
C07 and VA1 were assessed for their ability to enhance spinal fusion rates in vivo using a validated rabbit model of posterolateral lumbar arthrodesis. Both were tested as standalone osteoinductive drugs, as well as in combination with autologous ICBG, using two separate doses (300 and 500 mM). All rabbits were euthanized six weeks following arthrodesis surgery and the spine fusion masses were assessed by both plain radiography and μCT. Successful fusion, defined as continuous bridging bone between the TPs, was assessed by two spine surgeons.

[3] = molecular target: T1, sclerostin and LRP5 interaction; assay: in vitro binding assay with purified recombinant sclerostin and LRP5 proteins (125-Iodine-labeled sclerostin, biotin-labeled LRP5 pull-down); details: 0.1 ug biotin-labeled LRP5, 20,000 cpm 125-Iodine-labeled sclerostin, 30 min at room temperature
Experimental: (§1) To ensure that sclerostin was in fact being expressed in cell lines, we tested C2C12, MSC and MC3T3 cell lines. Western blots were performed using anti-sclerostin mAbs both with and without BMP-2 treatment. […] Sclerostin and LRP5 was labeled with 125-Iodine and biotin, respectively. Constant amounts of biotin-labeled LRP5 (0.1 ug) and 125-Iodine-labeled sclerostin (20,000 cpm) were incubated with or without varying concentrations of unlabeled-sclerostin+/−various concentrations of compounds for 30 min at room temperature in a 100 uL assay buffer. Biotin-labeled LRP5 was pulled down with a 20 uL slurry of neutravidin-agarose beads. The counts associated with pellets were counted in a Beckman 4000 Gamma counter. Unlabeled sclerostin competed off about 90% of labeled-sclerostin.

[4] = molecular target: purified recombinant LRP5; assay: radioligand competition pull-down: 125I-sclerostin and biotin-LRP5, neutravidin-agarose beads, gamma counting; competitor unlabeled sclerostin
Sclerostin protein = assay: Western blots using anti-sclerostin mAbs with and without BMP-2 treatment; format: cell-based; details: C2C12, MSC and MC3T3 cell lines
Experimental: as §1

| Molecule | BMP-induced mRNA levels of AXIN2, Wnt1 and SOST compared to BMP-2 alone control [1] | dose-response of ectopic mineralization (Sprague-Dawley rats) | de novo ectopic mineralization (Sprague-Dawley rats) | spinal fusion rates compared to controls [2] | spines successfully fused [2] [%] | posterolateral spine fusion rate [2] [%] | also measured |
| --- | --- | --- | --- | --- | --- | --- | --- |
| N#Cc1ccc(NCCNc2ncccn2)nc1 [Compound C07, 6-((2-(pyrimidin-2-ylamino)ethyl)amino)nicotinonitrile] | elevation | clearer dose-response | significant de novo ectopic mineralization | Neither VA1 nor C07 at 300 mM showed any increase | 33 | 85 |  |
| CCCC(CCC)C(=O)O [VA1, valproic acid] | elevation | lack of a clear dose-response | significant de novo ectopic mineralization | Neither VA1 nor C07 at 300 mM showed any increase | 17 | 80 |  |
| Unlabeled sclerostin: purified recombinant sclerostin protein, unlabeled competitor in the LRP5 binding assay |  |  |  |  |  |  | labeled-sclerostin competed off [3]: about 90% |
| purified recombinant sclerostin (ligand) |  |  |  |  |  |  | percent of labeled sclerostin competed off [4]: 90% |
| B1 |  |  |  |  |  |  | Sclerostin protein levels (Sclerostin protein): increased protein levels |
